Experimental data reported in ChEMBL document CHEMBL1155629, “Cytotoxic prenyleudesmane diterpenes from the fruits of Dysoxylum kuskusense” (2000).
In brackets after ≈: the same amount, converted by molar mass.

Key:
Format in all cases: functional
Details in all cases: read-out: ED50 (the source's name)
A549 = test: Cytotoxicity against human A549 cells
HT-29 = test: Cytotoxicity against human HT29 cells
P388 = test: Cytotoxicity against mouse P388 cells

Q: For CC(C)=CC(=O)/C=C(\C)C1CC[C@@]2(C)CC(=O)C=C(C)[C@@H]2C1 (stereo partly specified) [DYSOKUSONE D], which EC50 (A549) is on record?
A: 2.39 µg/mL (≈ 7.95 µM)

Q: And the EC50 (HT-29)?
A: 4.68 µg/mL (≈ 15.6 µM)

Q: And the EC50 (P388)?
A: 3.87 µg/mL (≈ 12.9 µM)

Q: How did the EC50 (A549) turn out when CC1=CC(=O)C[C@]2(C)CCC(/C(C)=C/C=C/C(C)(C)O)C[C@@H]12 (stereo partly specified) [DYSOKUSONE E] was run?
A: 3.76 µg/mL (≈ 12.4 µM)

Q: What about the EC50 (HT-29) of the same molecule?
A: 4.89 µg/mL (≈ 16.2 µM)

Q: What about the EC50 (P388) of the same molecule?
A: 2.64 µg/mL (≈ 8.73 µM)
